The results in this text go back to ChEMBL document CHEMBL1155488, “Carbamate derivatives of betulinic acid and betulin with selective cytotoxic activity” (Bioorg Med Chem Lett, 2010).

Common to all, as to assay type: functional, cell-based
Experiment [1] is described as follows: Cytotoxicity against human 518A2 cells after 96 hrs by SRB assay. To be noted: 518A2, 96 h.
Experiment [2] is described as follows: Cytotoxicity against human Liposarcoma cells after 96 hrs by SRB assay.
A further experiment concerns DLD-1. Put plainly: Cytotoxicity against human DLD1 cells after 96 hrs by SRB assay. To be noted: DLD-1, 96 h.
Another experiment has as its system FaDu. Put plainly: Cytotoxicity against human FADU cells after 96 hrs by SRB assay.
The test system of another experiment is HT-29. Put plainly: Cytotoxicity against human HT-29 cells after 96 hrs by SRB assay. The settings on record: HT-29, 96 h.
The subject of a further experiment is HCT-116. Put plainly: Cytotoxicity against human HCT116 cells after 96 hrs by SRB assay. The settings on record: HCT-116, 96 h.
For the next experiment, the system named is A549. Put plainly: Cytotoxicity against human A549 cells after 96 hrs by SRB assay. The settings on record: A549, 96 h.
Another experiment relates to SW-1736. Put plainly: Cytotoxicity against human SW1736 cells after 96 hrs by SRB assay. To be noted: SW-1736, 96 h.
A further experiment deals with HCT-8. Put plainly: Cytotoxicity against human HCT8 cells after 96 hrs by SRB assay. To be noted: HCT-8, 96 h.
In a further experiment the test system is A2780. Put plainly: Cytotoxicity against human A2780 cells after 96 hrs by SRB assay. To be noted: A2780, 96 h.
The subject of a further experiment is 8505C. Put plainly: Cytotoxicity against human 8505C cells after 96 hrs by SRB assay.
Experiment [3] can be described thus: Cytotoxicity against human A253 cells after 96 hrs by SRB assay. The settings on record: A253, 96 h.
The next experiment deals with A-431. Put plainly: Cytotoxicity against human A431 cells after 96 hrs by SRB assay. To be noted: A-431, 96 h.
A further experiment relates to SW480. Put plainly: Cytotoxicity against human SW480 cells after 96 hrs by SRB assay. The settings on record: SW480, 96 h.
In the next experiment the test system is MCF7. Put plainly: Cytotoxicity against human MCF7 cells after 96 hrs by SRB assay. To be noted: MCF7, 96 h.

Turning to `C=C(C)[C@@H]1CC[C@]2(C(=O)OC)CC[C@]3(C)[C@H](CC[C@@H]4[C@@]5(C)CC[C@H](O)C(C)(C)[C@@H]5CC[C@]43C)[C@@H]12` [METHYL BETULINATE], the half-inhibitory concentration (IC50) stood at 28.8 µM in experiment [1]; 23.3 µM in experiment [2]; 45.9 µM in the experiment with DLD-1; 20.3 µM with FaDu; 30.7 µM in the experiment on HT-29; 20.5 µM in the experiment with HCT-116. In addition, the half-inhibitory concentration (IC50) was determined as 20.6 µM with A549; 32.1 µM in the experiment on SW-1736; 17.2 µM in the experiment with HCT-8; 29.3 µM with A2780; 23.7 µM with 8505C; 18.5 µM in experiment [3]. In addition, the IC50 came out at 27 µM in the experiment on A-431, 17.9 µM with SW480 and 24.4 µM in the experiment with MCF7.
Take `C=C(C)[C@@H]1CC[C@]2(C(=O)O)CC[C@]3(C)[C@H](CC[C@@H]4[C@@]5(C)CC[C@H](OC(=O)Nc6ccccc6)C(C)(C)[C@@H]5CC[C@]43C)[C@@H]12`: the half-inhibitory concentration (IC50) stood at 51.5 µM in experiment [1]; 51.9 µM in experiment [2]; 26.3 µM in the experiment with DLD-1; 24.2 µM in the experiment with FaDu; 31.6 µM in the experiment on HT-29; 21.4 µM in the experiment with HCT-116. Besides, the IC50 in the experiment on A549 is 22.4 µM; in the experiment on SW-1736, 18.8 µM; with HCT-8, 25.2 µM; with A2780 it was 24.8 µM; with 8505C, 39.6 µM; in experiment [3] it was 34.7 µM. Also, the half-maximal inhibitory concentration (IC50) is 26.7 µM with A-431, 41.1 µM in the experiment on SW480 and 47.9 µM in the experiment on MCF7.
Regarding `C=C(C)[C@@H]1CC[C@]2(COC(=O)Nc3ccccc3)CC[C@]3(C)[C@H](CC[C@@H]4[C@@]5(C)CC[C@H](OC(=O)Nc6ccccc6)C(C)(C)[C@@H]5CC[C@]43C)[C@@H]12` [BIS(PHENYLCARBAMATE)BETULIN], the IC50 in experiment [1] is > 100 µM; in [2], > 100 µM; in the experiment with DLD-1, > 100 µM; in the experiment on FaDu, > 100 µM; in the experiment on HT-29 it was 69.2 µM; in the experiment with HCT-116 it was > 100 µM. The half-inhibitory concentration (IC50) in the experiment with A549 is > 100 µM; with SW-1736, > 100 µM; in the experiment with HCT-8, > 100 µM; in the experiment with A2780, 80.6 µM; with 8505C it was > 100 µM; in experiment [3] it was > 100 µM. The IC50 in the experiment with A-431, in the experiment with SW480 and in the experiment with MCF7 was > 100 µM throughout.
On to `C=C(C)[C@@H]1CC[C@]2(C(=O)OC)CC[C@]3(C)[C@H](CC[C@@H]4[C@@]5(C)CC[C@H](OC(=O)NCC)C(C)(C)[C@@H]5CC[C@]43C)[C@@H]12`, for which the IC50 in [1] was determined as 16.7 µM; in [2] it was 6.85 µM; in the experiment on DLD-1, 18.9 µM; in the experiment on FaDu it was 5.53 µM; in the experiment on HT-29 it was 7.22 µM; in the experiment on HCT-116, 13.5 µM. The IC50 with A549 worked out at 2.32 µM; in the experiment on SW-1736, 2.35 µM; with HCT-8 it was 15 µM; in the experiment with A2780, 8.35 µM; in the experiment with 8505C it was 7.22 µM; in experiment [3], 16.7 µM. Besides, the values for the 50% inhibitory concentration (IC50) in the experiment with A-431, in the experiment on SW480 and in the experiment on MCF7 were 14.8 µM, 6.67 µM and 7.03 µM, respectively.
For `C=C(C)[C@@H]1CC[C@]2(COC(C)=O)CC[C@]3(C)[C@H](CC[C@@H]4[C@@]5(C)CC[C@H](OC(=O)Nc6ccccc6)C(C)(C)[C@@H]5CC[C@]43C)[C@@H]12`, the half-inhibitory concentration (IC50) in experiment [1] was > 100 µM; in [2], > 100 µM; with DLD-1, > 100 µM; in the experiment with FaDu it was > 100 µM; in the experiment with HT-29 it was 76.4 µM; with HCT-116, > 100 µM. Also, the half-maximal inhibitory concentration (IC50) is > 100 µM in the experiment on A549; > 100 µM in the experiment with SW-1736; > 100 µM in the experiment on HCT-8; 84.2 µM in the experiment on A2780; > 100 µM in the experiment with 8505C; > 100 µM in experiment [3]. Moreover, the IC50 in the experiment with A-431, in the experiment on SW480 and in the experiment on MCF7 was > 100 µM each time.
Regarding `C=C(C)[C@@H]1CC[C@]2(C(=O)OC)CC[C@]3(C)[C@H](CC[C@@H]4[C@@]5(C)CC[C@H](OC(=O)Nc6ccccc6)C(C)(C)[C@@H]5CC[C@]43C)[C@@H]12`, the half-inhibitory concentration (IC50) is > 100 µM in experiment [1]; > 100 µM in experiment [2]; > 100 µM in the experiment with DLD-1; > 100 µM with FaDu; 69 µM with HT-29; > 100 µM with HCT-116. Besides, the half-inhibitory concentration (IC50) was > 100 µM with A549; > 100 µM with SW-1736; > 100 µM in the experiment with HCT-8; 69.5 µM in the experiment on A2780; > 100 µM with 8505C; > 100 µM in experiment [3]. In addition, the values for the 50% inhibitory concentration (IC50) in the experiment with A-431, with SW480 and in the experiment with MCF7 were 91.5 µM, > 100 µM and > 100 µM, respectively.
On to `C=C(C)[C@@H]1CC[C@]2(COC(C)=O)CC[C@]3(C)[C@H](CC[C@@H]4[C@@]5(C)CC[C@H](O)C(C)(C)[C@@H]5CC[C@]43C)[C@@H]12`, for which the IC50 in experiment [1] came out at 15.8 µM; in experiment [2], 15.5 µM; with DLD-1 it was 13.1 µM; with FaDu, 14 µM; with HT-29 it was 11 µM; in the experiment on HCT-116, 10.7 µM. Besides, the half-maximal inhibitory concentration (IC50) is 14.4 µM in the experiment with A549; 12 µM in the experiment with SW-1736; 18 µM with HCT-8; 11.7 µM in the experiment on A2780; 14.7 µM in the experiment on 8505C; 12.9 µM in experiment [3]. Moreover, the half-inhibitory concentration (IC50) was determined as 12.2 µM in the experiment on A-431, 13.7 µM in the experiment on SW480 and 11.4 µM in the experiment with MCF7.
